Reference: PMC11375702, “Early Preclinical Studies of Ergosterol Peroxide and Biological Evaluation of Its Derivatives” (ACS Omega, 2024)

Columns and labels:
[1] = Parallel Artificial Membrane Permeability Assay (PAMPA); type: in vitro ADME
Experimental: This assay is to analyze the permeability of various drugs/compounds on a homogeneous artificial lipid membrane using the normal Double-Sink PAMPA protocol. Then, 6 μL of 10 mM compound solution in DMSO was applied to each well in a stock plate. Compounds were diluted 200-fold in PBS buffer (pH = 7.4). 180 μL of diluted solution was added to a donor plate (pION INC, Woburn, MA). A filter plate (acceptor plate; pION INC, Woburn, MA) containing 200 μL of acceptor sink buffer (ASB, pH = 7.4; pION INC, Woburn, MA) was then placed over the donor plate. The plates were incubated at room temperature for 0.5 h with magnetic stirring in individual wells to allow the compounds to cross the membrane. Fractions were collected from both the donor plate and the acceptor plate, and the concentrations were assessed by UV spectrometry (230–500 nm). Sample preparation, sample analysis, and data processing are fully automated using a Biomek FX ADME-TOX workstation and the UV-based PAMPA Evolution-96 Command Software. All compounds were tested in triplicates.

SUM149 = test: CellTiter-Glo 72 h cytotoxicity assay, SUM149; type: cell-based; details: Homo sapiens; for EC50: SUM149, CTG assay, 72 h; for IC50: calculated from SUM149 EC50
Text: First, topological polar surface area (tPSA), a widely used molecular descriptor that provides insight into compound absorption and membrane penetration, was theoretically calculated for these compounds along with the estimated c log P (partition coefficient) or log P to further assess their global therapeutic potential.[18],[19] Lipophilicity, a measurable and predictable physical property, can provide practical guidance in designing compounds with improved molecular properties.[20] The tPSA sums the contribution of the surface area of polar atoms, enabling us to determine whether the compounds are more likely to be cell membrane permeable. The aqueous solubility was measured by ultraviolet/visible (UV/vis) spectroscopy.[21] […] EP shares an improved cLogP, but still relatively high from a desirable drug candidate (2.5–3.5). […] Compound 4 has a higher c log P, while compounds 5–10 have lower c log P values. To determine LiPE (lipophilicity efficiency), the following formula was used: LiPE = pIC50 – log P, according to established methods.[22],[23] […] The obtained EC50 values for the newly generated EP derivatives were within a similar range for other derivatives previously described against TNBC models.[17]
The following stable human cell lines were utilized for this study: SUM149 and MDA-MB-231 (breast cancer models) and BJ (human normal fibroblast, foreskin). Cells were purchased from BioIVT or the American Type Culture Collection (ATCC). Cells were cultured in F-12-Nutrient Mixture (SUM149), DMEM (MDA-MB-231), or EMEM (BJ) medium supplemented with 10% fetal bovine serum (Sigma-Aldrich, St. Louis, MO) and 2 mmol of L-glutamine, at 37 °C in a humidified 5% CO2 atmosphere (no antibiotics) as indicated by the manufacturer. Cell cultures were grown to 80–90% confluence before use, except where otherwise specified. Our cell lines are authenticated every 3 months using the CellCheck service (Idexx BioResearch, Westbrook, ME). Cells were tested for mycoplasma prior to use (MycoAlert detection Kit Lonza LT07–318) and discarded if they tested positive. A cell proliferation assay was performed using the CellTiter-Glo (Promega Corp., Madison, WI) luminescent cell viability assay kit. Cells were detached with trypsin, counted, and seeded in white polystyrene flat-bottom sterile 96-well tissue culture-treated plates (catalog no. 3917, Corning, Glendale, Arizona) and incubated overnight at 37 °C. MDA-MB231, SUM149, and BJ cells were seeded into 96-well plates at concentrations experimentally determined (0.4 × 10^4, 0.25 × 10^4, and 0.3 × 10^4 cells per well, respectively) to ensure logarithmic growth during the duration of the experiment and to prevent adverse effects on cell growth by DMSO exposure. The plates were incubated for 12 h before treatment. Stock solutions of test compounds (10 mM in DMSO) in nine 3-fold serial dilutions were dispensed. The final concentration of DMSO was 0.3% (v/v) in each well. The positive control used was staurosporine (10 μM) as the kill-all control, and the negative control used is DMSO as we have published. Staurosporine is a potent alkaloid inducer of various cell death modalities but primarily apoptosis, making it a reliable positive control for viability assays. The plates were incubated for 72 h and then quenched with CTG at 50 μL per well at RT. Plates were then incubated at RT for 20 min and centrifuged at 1000 rpm for 1 min. Luminescence was read on a CLARIOstar Plus plate reader (BMG LabTech, Ortenberg, Germany).
Three or four technical replicates were conducted for each experimental condition, and a minimum of three independent experiments were conducted for each assay. In vitro ADME values were expressed as mean ± standard deviation (SD) of at least three independent experiments. One-way analysis of variance (ANOVA) was adopted for comparisons among groups using the GraphPad Prism 10.2.3 (GraphPad Software, San Diego, CA). A difference of P < 0.05 was considered as statistically significant. […]

[2] = Caco-2 permeability assay; type: in vitro ADME; details: human; for efflux ratio at 2 h, 10 µmol/L: Caco-2, pH 7.4, Caco-2, read-out: efflux ratio (B2A/A2B); for Papp A→B at 2 h, 10 µmol/L / Papp B→A at 2 h, 10 µmol/L: Caco-2, pH 7.4; for Papp A→B at 2 h, 10 µmol/L: apical to basolateral; for Papp B→A at 2 h, 10 µmol/L: basolateral to apical
Experimental: It was performed in the 96-well Transwell system with a modified method.[36] Caco-2 cells were maintained at 37 °C in a humidified incubator with an atmosphere of 5% CO2. The cells were cultured in MEM containing 20% FBS in […], 100 units/mL penicillin, and 100 μg/mL of streptomycin. The Caco-2 cells were seeded onto inserts of a 96-well plate at a density of 0.5 × 10^5 cells/insert and cultured in the MEM containing 20% FBS for 7 days. Each cultured monolayer on the 96-well plate was washed twice with HBSS/HEPES (10 mM, pH 7.4). The permeability assay was initiated by the addition of each compound solution (10 μmol/L) into inserts (apical side, A) or receivers (basolateral side, B). The Caco-2 cell monolayers were incubated for 2 h at 37 °C. Fractions were collected from receivers (if apical to basal permeability) or inserts (if basal to apical permeability), and concentrations were assessed by UPLC/MS (Waters; Milford, MA). All compounds were tested in triplicates. The A → B (or B → A) apparent permeability coefficients ([…]) of each compound were calculated using the equation Pappa = dQ/dt × 1/AC0. The flux of a drug across the monolayer is dQ/dt (μmol/s). The initial drug concentration on the apical side is C0 (μmol/L). The surface area of the monolayer is A (cm^2).

[3] = Metabolic stability in mouse liver microsomes; type: in vitro ADME; details: female, CD-1, pooled liver microsomes, read-out: metabolic stability (mouse) t1/2 (converted)
Experimental: (§1) Human and/or mouse microsomal degradation was determined using multiple time points to monitor the rate of disappearance of the parent compound during incubation following the method described by Di et al.[51],[52] […] The metabolic stability was evaluated via the half-life from the least-squares fit of the multiple time points based on first-order kinetics. Waters ACQUITY-TOQ UPLC-MS-MS-UV system was used to analyze the samples as established in various MS core facilities.[51],[52]

[4] = Metabolic stability in human liver microsomes; type: in vitro ADME; details: both sexes, pooled liver microsomes, read-out: metabolic stability (human) t1/2 (converted)
Experimental: as §1

SMILES | Papp at 0.5 h, 50 µM ([1]; PAMPA, pH 7.4, pH 7.40, read-out: PAMPA Avg Pe) | PAMPA %R ([1]; pH 7.40) | PAMPA Avg Pe ([1]; pH 7.40) | EC50 (SUM149) | IC50 (SUM149) | efflux ratio at 2 h, 10 µmol/L [2] | Papp A→B at 2 h, 10 µmol/L [2] | Papp B→A at 2 h, 10 µmol/L [2] | half-life [3] | half-life [4] | PAMPA Avg Pe ([1]; PAMPA, 0.5 h, 50 µM, pH 7.4)
CC(C)[C@@H](C)/C=C/[C@@H](C)[C@H]1CC[C@@H]2[C@]1(C)CC[C@H]1[C@]23C=C[C@]2(C[C@@H](O)CC[C@]12C)OO3 [Compound 2, Ergosterol peroxide] | 65.3 ×10⁻⁶ cm/s | 81.90% | 65.31 10–6 cm/s | 6 µM | 6.03 µM | ~1 | 34.2 ×10⁻⁶ cm/s | 31.9 ×10⁻⁶ cm/s | 5.63 h | 2.74 h | –
CC(C)[C@@H](C)/C=C/[C@@H](C)[C@H]1CC[C@@H]2[C@]1(C)CC[C@H]1[C@]23C=C[C@]2(CC(=O)CC[C@]12C)OO3 [Compound 3] | – | – | – | 5 µM | 5.01 µM | 0.49 | 0.626 ×10⁻⁶ cm/s | 0.307 ×10⁻⁶ cm/s | 0.9 h | 0.83 h | 00 10–6 cm/s
